# Measurements as given in patent publication US12345718B2, “Method for determining the haemoglobin content of an erythroid cell” (UNIVERSITÉ PARIS EST CRÉTEIL VAL DE MARNE, priority 2016, dated 2025).
# Several values for one entry are separate records, joined by “and”; a condition that tells them apart may be missing. Identical values can stand only once.
# Key:
# [1] = Complete blood count / biological data of SS patients during treatment with hydroxyurea; format: in vivo, human
# [2] = tested on: HbF; experiment: Mean HbF percentage (% HbF) by HPLC in SS patients before and during treatment with hydroxyurea
# [3] = tested on: HbF; experiment: HbF content of each red blood cell by flow cytometry (HbF distribution) during treatment with hydroxyurea
# [4] = SS patients, M6 of hydroxyurea, median
# [5] = 9 SS patients, D15-M3, mean (standard deviation)
# [6] = 9 SS patients, ≥M6, mean (standard deviation)
compound,measurement,setting,value
NC(=O)NO [hydroxyurea],Hemoglobin,[1]; [4],9.35 g/dL
same,MCHC,[1]; [4],34.40 g/dL
same,MCHCo,[1]; [4],33.80 pg
same,MCV,[1]; [4],100.50 femtoliter
same,change in mean corpuscular hemoglobin concentration (MCHC),[1]; after 6 months of treatment,no significant variation
same,change in mean corpuscular volume (MCV),[1]; after 6 months of treatment,significant increase
same,change in mean hemoglobin content per red blood cell (MCHCo),[1]; after 6 months of treatment,significant increase
same,change in percentage of dense red blood cells,"[1]; after 6 months of treatment, decrease not significant",tendency to decrease
same,"ASAT, relative difference in % D 0 vs M 6",[1]; patient 11,−52% and −52.7%
same,"HbF, relative difference in % D 0 vs M 6",[1]; patient 11,+14.5%
same,"LDH, relative difference in % D 0 vs M 6",[1]; patient 11,−57% and −57.7%
same,"RETIC, relative difference in % D 0 vs M 6",[1]; patient 11,−77% and −77.1%
same,ASAT (aspartate transaminase),"[1]; patient 11, M 6",26 IU/l
same,HbF,"[1]; patient 11, M 6",7.1 g/dL
same,LDH (lactate dehydrogenase),"[1]; patient 11, M 6",383 IU/l
same,MCHCo,"[1]; patient 11, M 6",38.9 pg
same,"ASAT, relative difference in % D 0 vs M 6",[1]; patient 24,−9.4%
same,"HbF, relative difference in % D 0 vs M 6",[1]; patient 24,+14.5%
same,"LDH, relative difference in % D 0 vs M 6",[1]; patient 24,−40.5%
same,"RETIC, relative difference in % D 0 vs M 6",[1]; patient 24,−57% and −57.2%
same,ASAT (aspartate transaminase),"[1]; patient 24, M 6",29 IU/l
same,HbF,"[1]; patient 24, M 6",8.7 g/dL
same,LDH (lactate dehydrogenase),"[1]; patient 24, M 6",303 IU/l
same,MCHCo,"[1]; patient 24, M 6",42 pg
same,increase of mean HbF percentage (% HbF),"[2]; after 6 months of treatment, SS patients",approximately 3 fold
same,% HbF,"[2]; patient 2, M6",25%
same,% HbF,"[2]; patient 11, M 6",18%
same,% HbF,"[2]; patient 24, M 6",18%
same,% HbF,"[2]; total red blood cells, SS patients, D15-M1 of hydroxyurea, median",4.9%
same,% HbF,"[2]; total red blood cells, SS patients, M3-M4 of hydroxyurea, median",7%
same,% HbF,"[2]; total red blood cells, SS patients, M6 of hydroxyurea, median",10.05%
same,% RBCs with HbF [0; 2[ pg,[3]; [5],65.63 (25.13 % RBCs
same,% RBCs with HbF [2; 4[ pg,[3]; [5],11.32 (6.80 % RBCs
same,% RBCs with HbF [4; 6[ pg,[3]; [5],4.88 (2.90 % RBCs
same,% RBCs with HbF [6; 8[ pg,[3]; [5],3.42 (2.52 % RBCs
same,% RBCs with HbF [8; 10[ pg,[3]; [5],2.65 (2.18 % RBCs
same,% RBCs with HbF [10; 15[ pg,[3]; [5],2.41 (2.73 % RBCs
same,% RBCs with HbF [15; 20[ pg,[3]; [5],4.42 (4.27 % RBCs
same,% RBCs with HbF ≥20 pg,[3]; [5],5.27 (8.56 % RBCs
same,% RBCs with HbF [0; 2[ pg,[3]; [6],53.17 (30.63 % RBCs
same,% RBCs with HbF [2; 4[ pg,[3]; [6],15.05 (10.11 % RBCs
same,% RBCs with HbF [4; 6[ pg,[3]; [6],6.70 (4.39 % RBCs
same,% RBCs with HbF [6; 8[ pg,[3]; [6],3.92 (2.44 % RBCs
same,% RBCs with HbF [8; 10[ pg,[3]; [6],2.72 (1.83 % RBCs
same,% RBCs with HbF [10; 15[ pg,[3]; [6],2.55 (2.57 % RBCs
same,% RBCs with HbF [15; 20[ pg,[3]; [6],4.29 (3.42 % RBCs
same,% RBCs with HbF ≥20 pg,[3]; [6],11.60 (18.64 % RBCs
same,variation of red blood cells with medium-high HbF contents,[3]; D0 to M6,much lower variations
same,change in red blood cells having a very low HbF content,[3]; after 6 months of treatment,decreased greatly
same,increase of red blood cells with HbF content greater than 20 pg,[3]; after 6 months of treatment,up to 3 fold
same,patients in whom HbF follows a homogeneous distribution,"[3]; after 6 months of treatment, heterogeneous before treatment in 8 patients, 9 analyzed",6 patients
same,increase of red blood cells with HbF content greater than 20 g,"[3]; after 6 months of treatment, variation not significant",up to 3 times
same,patients in whom HbF distribution becomes homogeneous,[3]; after ≥M4,5 patients
same,"variation in red blood cells having the lowest HbF contents (0 and 2 pg), given as increase","[3]; between D0 and M6, 9 patients",approximately 25%
same,% RBCs with HbF [0; 2[ pg,"[3]; patient 2, D15-M1",9.21 % RBCs
same,% RBCs with HbF [2; 4[ pg,"[3]; patient 2, D15-M1",14.72 % RBCs
same,% RBCs with HbF [4; 6[ pg,"[3]; patient 2, D15-M1",9.52 % RBCs
same,% RBCs with HbF [6; 8[ pg,"[3]; patient 2, D15-M1",8.47 % RBCs
same,% RBCs with HbF [8; 10[ pg,"[3]; patient 2, D15-M1",7.35 % RBCs
same,% RBCs with HbF [10; 15[ pg,"[3]; patient 2, D15-M1",9.03 % RBCs
same,% RBCs with HbF [15; 20[ pg,"[3]; patient 2, D15-M1",14.27 % RBCs
same,% RBCs with HbF ≥20 pg,"[3]; patient 2, D15-M1",27.43 % RBCs
same,% RBCs with HbF [0; 2[ pg,"[3]; patient 2, M3-M4",5.29 % RBCs
same,% RBCs with HbF [2; 4[ pg,"[3]; patient 2, M3-M4",8.62 % RBCs
same,% RBCs with HbF [4; 6[ pg,"[3]; patient 2, M3-M4",10.61 % RBCs
same,% RBCs with HbF [6; 8[ pg,"[3]; patient 2, M3-M4",10.39 % RBCs
same,% RBCs with HbF [8; 10[ pg,"[3]; patient 2, M3-M4",8.75 % RBCs
same,% RBCs with HbF [10; 15[ pg,"[3]; patient 2, M3-M4",8.50 % RBCs
same,% RBCs with HbF [15; 20[ pg,"[3]; patient 2, M3-M4",14.54 % RBCs
same,% RBCs with HbF ≥20 pg,"[3]; patient 2, M3-M4",33.30 % RBCs
same,change in red blood cells containing HbF content greater than 20 pg,"[3]; patient 2, at M6",clear increase
same,% RBCs with HbF [0; 2[ pg,"[3]; patient 2, ≥M6",4.98 % RBCs
same,% RBCs with HbF [2; 4[ pg,"[3]; patient 2, ≥M6",7.04 % RBCs
same,% RBCs with HbF [4; 6[ pg,"[3]; patient 2, ≥M6",5.53 % RBCs
same,% RBCs with HbF [6; 8[ pg,"[3]; patient 2, ≥M6",4.85 % RBCs
same,% RBCs with HbF [8; 10[ pg,"[3]; patient 2, ≥M6",4.56 % RBCs
same,% RBCs with HbF [10; 15[ pg,"[3]; patient 2, ≥M6",7.48 % RBCs
same,% RBCs with HbF [15; 20[ pg,"[3]; patient 2, ≥M6",9.75 % RBCs
same,% RBCs with HbF ≥20 pg,"[3]; patient 2, ≥M6",55.81 % RBCs
same,% RBCs with HbF [0; 2[ pg,"[3]; patient 11, D15-M1",55.38 % RBCs
same,% RBCs with HbF [2; 4[ pg,"[3]; patient 11, D15-M1",23.31 % RBCs
same,% RBCs with HbF [4; 6[ pg,"[3]; patient 11, D15-M1",6.25 % RBCs
same,% RBCs with HbF [6; 8[ pg,"[3]; patient 11, D15-M1",3.07 % RBCs
same,% RBCs with HbF [8; 10[ pg,"[3]; patient 11, D15-M1",2.55 % RBCs
same,% RBCs with HbF [10; 15[ pg,"[3]; patient 11, D15-M1",2.24 % RBCs
same,% RBCs with HbF [15; 20[ pg,"[3]; patient 11, D15-M1",4.42 % RBCs
same,% RBCs with HbF ≥20 pg,"[3]; patient 11, D15-M1",2.78 % RBCs
same,% RBCs with HbF [0; 2[ pg,"[3]; patient 11, M3-M4",48.83 % RBCs
same,% RBCs with HbF [2; 4[ pg,"[3]; patient 11, M3-M4",31.73 % RBCs
same,% RBCs with HbF [4; 6[ pg,"[3]; patient 11, M3-M4",9.30 % RBCs
same,% RBCs with HbF [6; 8[ pg,"[3]; patient 11, M3-M4",4.32 % RBCs
same,% RBCs with HbF [8; 10[ pg,"[3]; patient 11, M3-M4",2.04 % RBCs
same,% RBCs with HbF [10; 15[ pg,"[3]; patient 11, M3-M4",0.72 % RBCs
same,% RBCs with HbF [15; 20[ pg,"[3]; patient 11, M3-M4",2.46 % RBCs
same,% RBCs with HbF ≥20 pg,"[3]; patient 11, M3-M4",0.59 % RBCs
same,RBCs >6 pg HbF,"[3]; patient 11, at 6 months of treatment",57%
same,decrease of red blood cells with HbF content of less than 2 pg,"[3]; patient 11, at M6",approximately 73%
same,% RBCs with HbF [0; 2[ pg,"[3]; patient 11, ≥M6",12.93 % RBCs
same,% RBCs with HbF [2; 4[ pg,"[3]; patient 11, ≥M6",17.62 % RBCs
same,% RBCs with HbF [4; 6[ pg,"[3]; patient 11, ≥M6",11.85 % RBCs
same,% RBCs with HbF [6; 8[ pg,"[3]; patient 11, ≥M6",8.05 % RBCs
same,% RBCs with HbF [8; 10[ pg,"[3]; patient 11, ≥M6",6.08 % RBCs
same,% RBCs with HbF [10; 15[ pg,"[3]; patient 11, ≥M6",6.13 % RBCs
same,% RBCs with HbF [15; 20[ pg,"[3]; patient 11, ≥M6",9.77 % RBCs
same,% RBCs with HbF ≥20 pg,"[3]; patient 11, ≥M6",27.57 % RBCs
same,% RBCs with HbF [0; 2[ pg,"[3]; patient 24, D15-M1",53.17 % RBCs
same,% RBCs with HbF [2; 4[ pg,"[3]; patient 24, D15-M1",11.57 % RBCs
same,% RBCs with HbF [4; 6[ pg,"[3]; patient 24, D15-M1",6.69 % RBCs
same,% RBCs with HbF [6; 8[ pg,"[3]; patient 24, D15-M1",5.58 % RBCs
same,% RBCs with HbF [8; 10[ pg,"[3]; patient 24, D15-M1",4.50 % RBCs
same,% RBCs with HbF [10; 15[ pg,"[3]; patient 24, D15-M1",3.89 % RBCs
same,% RBCs with HbF [15; 20[ pg,"[3]; patient 24, D15-M1",7.56 % RBCs
same,% RBCs with HbF ≥20 pg,"[3]; patient 24, D15-M1",7.04 % RBCs
same,% RBCs with HbF [0; 2[ pg,"[3]; patient 24, M3-M4",44.56 % RBCs
same,% RBCs with HbF [2; 4[ pg,"[3]; patient 24, M3-M4",24.93 % RBCs
same,% RBCs with HbF [4; 6[ pg,"[3]; patient 24, M3-M4",12.53 % RBCs
same,% RBCs with HbF [6; 8[ pg,"[3]; patient 24, M3-M4",5.81 % RBCs
same,% RBCs with HbF [8; 10[ pg,"[3]; patient 24, M3-M4",3.09 % RBCs
same,% RBCs with HbF [10; 15[ pg,"[3]; patient 24, M3-M4",1.87 % RBCs
same,% RBCs with HbF [15; 20[ pg,"[3]; patient 24, M3-M4",3.81 % RBCs
same,% RBCs with HbF ≥20 pg,"[3]; patient 24, M3-M4",3.41 % RBCs
same,RBCs >6 pg HbF,"[3]; patient 24, at 6 months of treatment",24%
same,decrease of red blood cells with HbF content of less than 2 pg,"[3]; patient 24, at M6",approximately 40%
same,% RBCs with HbF [0; 2[ pg,"[3]; patient 24, ≥M6",36.98 % RBCs
same,% RBCs with HbF [2; 4[ pg,"[3]; patient 24, ≥M6",25.28 % RBCs
same,% RBCs with HbF [4; 6[ pg,"[3]; patient 24, ≥M6",13.64 % RBCs
same,% RBCs with HbF [6; 8[ pg,"[3]; patient 24, ≥M6",6.92 % RBCs
same,% RBCs with HbF [8; 10[ pg,"[3]; patient 24, ≥M6",3.93 % RBCs
same,% RBCs with HbF [10; 15[ pg,"[3]; patient 24, ≥M6",2.70 % RBCs
same,% RBCs with HbF [15; 20[ pg,"[3]; patient 24, ≥M6",5.36 % RBCs
same,% RBCs with HbF ≥20 pg,"[3]; patient 24, ≥M6",5.20 % RBCs
same,patients in whom HbF distribution becomes homogeneous,[3]; starting from M2,1 patient
